Experimental data as given in US20210045385A1, “PYRIDAZINONE-SUBSTITUTED KETOXIMES AS HERBICIDES” (FMC Corporation, priority 2018, published 2021).

Key:
Assay type in all cases: in vivo
kochia (Kochia scoparia) [1] = test: Test A preemergence, visual plant response rating; settings: 500 g ai/ha Preemergence; approx. 10 days
In short: (§1)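 Greenhouse evaluation, approx. 10 days post-spray. Soil: loam + sand. Postemergence stage: 1–2 leaves, height 2–10 cm. Vehicle: non-phytotoxic solvent blend with surfactant. Score: visual injury on a 0 (no effect) to 100 (complete control) scale.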

[2] = test system: pigweed (Amaranthus retroflexus); test: Test A preemergence, visual plant response rating; settings: 500 g ai/ha Preemergence; approx. 10 days
In short: as §1

[3] = test system: foxtail, green (green foxtail, Setaria viridis); test: Test A preemergence, visual plant response rating; settings: 500 g ai/ha Preemergence; approx. 10 days
In short: as §1

[4] = test system: Italian ryegrass (Lolium multiflorum); test: Test A preemergence, visual plant response rating; settings: 500 g ai/ha Preemergence; approx. 10 days
In short: as §1

[5] = test system: barnyardgrass (Echinochloa crus-galli); test: Test A preemergence, visual plant response rating; settings: 500 g ai/ha Preemergence; approx. 10 days
In short: as §1

[6] = test system: ragweed (common ragweed, Ambrosia elatior); test: Test A preemergence, visual plant response rating; settings: 500 g ai/ha Preemergence; approx. 10 days
In short: as §1

[7] = test system: wheat (Triticum aestivum); test: Test A postemergence, visual plant response rating; settings: 500 g ai/ha, postemergence; 0 is no effect, 100 is complete control
In short: as §1

kochia (Kochia scoparia) [8] = test: Test A postemergence, visual plant response rating; settings: 500 g ai/ha, postemergence; 0 is no effect, 100 is complete control
In short: as §1

[9] = test system: pigweed (Amaranthus retroflexus); test: Test A postemergence, visual plant response rating; settings: 500 g ai/ha, postemergence; 0 is no effect, 100 is complete control
In short: as §1

[10] = test system: foxtail, green (green foxtail, Setaria viridis); test: Test A postemergence, visual plant response rating; settings: 500 g ai/ha, postemergence; 0 is no effect, 100 is complete control
In short: as §1

[11] = test system: galium (catchweed bedstraw, Galium aparine); test: Test A postemergence, visual plant response rating; settings: 500 g ai/ha, postemergence; 0 is no effect, 100 is complete control
In short: as §1

[12] = test system: Italian ryegrass (Lolium multiflorum); test: Test A postemergence, visual plant response rating; settings: 500 g ai/ha, postemergence; 0 is no effect, 100 is complete control
In short: as §1

[13] = test system: blackgrass (Alopecurus myosuroides); test: Test A postemergence, visual plant response rating; settings: 500 g ai/ha, postemergence; 0 is no effect, 100 is complete control
In short: as §1

[14] = test system: barnyardgrass (Echinochloa crus-galli); test: Test A postemergence, visual plant response rating; settings: 500 g ai/ha, postemergence; 0 is no effect, 100 is complete control
In short: as §1

corn (Zea mays) [15] = test: Test A postemergence, visual plant response rating; settings: 500 g ai/ha, postemergence; 0 is no effect, 100 is complete control
In short: as §1

[16] = test system: ragweed (common ragweed, Ambrosia elatior); test: Test A postemergence, visual plant response rating; settings: 500 g ai/ha, postemergence; 0 is no effect, 100 is complete control
In short: as §1

[17] = test system: Italian ryegrass (Lolium mutiflorum); test: Test C postemergence, visual plant response rating
In short: (§2)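 Compounds in a non-phytotoxic solvent with surfactant were applied as a directed soil spray preemergence or to 2–10 cm, one- to two-leaf plants postemergence, in loam–sand soil. After about 10 d in a greenhouse, injury was visually rated against untreated controls on a 0–100 scale (100 = complete control).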

[18] = test system: wheat (Triticum aestivum); test: Test C postemergence, visual plant response rating
In short: as §2

[19] = test system: pigweed (Amaranthus retroflexus); test: Test C postemergence, visual plant response rating
In short: as §2

[20] = test system: ragweed (common ragweed, Ambrosia artemisiifolia); test: Test C postemergence, visual plant response rating
In short: as §2

[21] = test system: foxtail, giant (giant foxtail, Setaria faberi); test: Test C postemergence, visual plant response rating
In short: as §2

[22] = test system: galium (catchweed bedstraw, Galium aparine); test: Test C postemergence, visual plant response rating
In short: as §2

kochia (Bassia scoparia) [23] = test: Test C postemergence, visual plant response rating
In short: as §2

[24] = test system: blackgrass (Alopecurus myosuroides); test: Test C postemergence, visual plant response rating
In short: as §2

[25] = test system: barnyardgrass (Echinochloa crus-galli); test: Test C postemergence, visual plant response rating
In short: as §2

corn (Zea mays) [26] = test: Test C postemergence, visual plant response rating
In short: as §2

[27] = test system: Italian ryegrass (Lolium mutiflorum); test: Test C preemergence, visual plant response rating
In short: as §2

[28] = test system: pigweed (Amaranthus retroflexus); test: Test C preemergence, visual plant response rating
In short: as §2

[29] = test system: ragweed (common ragweed, Ambrosia artemisiifolia); test: Test C preemergence, visual plant response rating
In short: as §2

[30] = test system: foxtail, giant (giant foxtail, Setaria faberi); test: Test C preemergence, visual plant response rating
In short: as §2

kochia (Bassia scoparia) [31] = test: Test C preemergence, visual plant response rating
In short: as §2

[32] = test system: barnyardgrass (Echinochloa crus-galli); test: Test C preemergence, visual plant response rating
In short: as §2

[33] = test system: sedge umbrella (small-flower umbrella sedge, Cyperus difformis); test: Test D flooded paddy test, visual plant response rating; settings: 250 g ai/ha, scale 0 to 100 (0 no effect, 100 complete control), 13 to 15 d
In short: (§3)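 2-leaf plants, flooded 3 cm, cpd into paddy water; greenhouse 13–15 d; visual rating vs controls, 0 = no effect, 100 = complete control; dash = no result.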

[34] = test system: duck salad (Heteranthera limosa); test: as above; settings: 250 g ai/ha, scale 0 to 100 (0 no effect, 100 complete control), 13 to 15 d
In short: as §3

[35] = test system: barnyardgrass (Echinochloa crus-galli); test: as above; settings: 250 g ai/ha, scale 0 to 100 (0 no effect, 100 complete control), 13 to 15 d
In short: as §3

rice (Oryza sativa) = test: as above; settings: 250 g ai/ha, scale 0 to 100 (0 no effect, 100 complete control), 13 to 15 d
In short: as §3

[36] = Test C, postemergence, 125 g ai/ha
[37] = Test C, 31 g ai/ha, 0 is no effect, 100 is complete control

CO/N=C(\c1cccc(C)c1)c1c(O)c(C2CC2)nn(C)c1=O [Compound 27]
Kochia plant response rating (0 to 100 scale) (kochia (Kochia scoparia) [1]): 0 | Pigweed plant response rating (0 to 100 scale) [2]: 0 | Foxtail, Green plant response rating (0 to 100 scale) [3]: 0 | Ryegrass, Italian plant response rating (0 to 100 scale) [4]: 10 | Barnyardgrass plant response rating (0 to 100 scale) [5]: 10 | Ragweed plant response rating (0 to 100 scale) [6]: 10 | Wheat plant response rating (0 to 100 scale) [7]: 20 | Kochia plant response rating (0 to 100 scale) (kochia (Kochia scoparia) [8]): 0 | Pigweed plant response rating (0 to 100 scale) [9]: 30 | Foxtail, Green plant response rating (0 to 100 scale) [10]: 0 | Galium plant response rating (0 to 100 scale) [11]: 80 | Ryegrass, Italian plant response rating (0 to 100 scale) [12]: 20 | Blackgrass plant response rating (0 to 100 scale) [13]: 10 | Barnyardgrass plant response rating (0 to 100 scale) [14]: 0 | Corn plant response rating (0 to 100 scale) (corn (Zea mays) [15]): 0 | Ragweed plant response rating (0 to 100 scale) [16]: 40

CO/N=C(/c1cc(F)cc(F)c1C)c1c(O)c(C)nn(C)c1=O [Compound 305]
Ryegrass, Italian plant response rating (0 to 100 scale) ([17]; Postemergence, 31 g ai/ha): 10 | Ryegrass, Italian plant response rating (0 to 100 scale) [17, 36]: 80 | Wheat plant response rating (0 to 100 scale) ([18]; Postemergence, 31 g ai/ha): 0 | Wheat plant response rating (0 to 100 scale) [18, 36]: 0 | Pigweed plant response rating (0 to 100 scale) ([19]; Postemergence, 31 g ai/ha): 60 | Pigweed plant response rating (0 to 100 scale) [19, 36]: 90 | Ragweed plant response rating (0 to 100 scale) ([20]; Postemergence, 31 g ai/ha): 30 | Ragweed plant response rating (0 to 100 scale) [20, 36]: 70 | Foxtail, Giant plant response rating (0 to 100 scale) ([21]; Postemergence, 31 g ai/ha): 30 | Foxtail, Giant plant response rating (0 to 100 scale) [21, 36]: 50 | Galium plant response rating (0 to 100 scale) ([22]; Postemergence, 31 g ai/ha): 70 | Galium plant response rating (0 to 100 scale) [22, 36]: 70 | Kochia plant response rating (0 to 100 scale) (kochia (Bassia scoparia) [23]; Postemergence, 31 g ai/ha): 50 | Kochia plant response rating (0 to 100 scale) (kochia (Bassia scoparia) [23]; [36]): 70 | Blackgrass plant response rating (0 to 100 scale) ([24]; Postemergence, 31 g ai/ha): 10 | Blackgrass plant response rating (0 to 100 scale) [24, 36]: 20 | Barnyardgrass plant response rating (0 to 100 scale) ([25]; Postemergence, 31 g ai/ha): 20 | Barnyardgrass plant response rating (0 to 100 scale) [25, 36]: 30 | Corn plant response rating (0 to 100 scale) (corn (Zea mays) [26]; Postemergence, 31 g ai/ha): 0 | Corn plant response rating (0 to 100 scale) (corn (Zea mays) [26]; [36]): 0 | Ryegrass, Italian plant response rating (0 to 100 scale) ([27]; 125 g ai/ha): 30 | Ryegrass, Italian plant response rating (0 to 100 scale) [27, 37]: 0 | Pigweed plant response rating (0 to 100 scale) ([28]; 125 g ai/ha): 70 | Pigweed plant response rating (0 to 100 scale) [28, 37]: 30 | Ragweed plant response rating (0 to 100 scale) ([29]; 125 g ai/ha): 20 | Ragweed plant response rating (0 to 100 scale) [29, 37]: 20 | Foxtail, Giant plant response rating (0 to 100 scale) ([30]; 125 g ai/ha): 30 | Foxtail, Giant plant response rating (0 to 100 scale) [30, 37]: 10 | Kochia plant response rating (0 to 100 scale) (kochia (Bassia scoparia) [31]; 125 g ai/ha): 30 | Kochia plant response rating (0 to 100 scale) (kochia (Bassia scoparia) [31]; [37]): 10 | Barnyardgrass plant response rating (0 to 100 scale) ([32]; 125 g ai/ha): 20 | Barnyardgrass plant response rating (0 to 100 scale) [32, 37]: 10 | Plant response rating, Sedge, Umbrella (Flood) [33]: 0 | Plant response rating, Ducksalad (Flood) [34]: 0 | Plant response rating, Barnyardgrass (Flood) [35]: 0 | Plant response rating, Rice (Flood) (rice (Oryza sativa)): 0
